Results taken from PubChem BioAssay AID1259407 (Chemical Carcinogenesis Research Information System (CCRIS), 2018).
Activity calls are given as the source filed them. The rule behind the calls is not given here.

Tested on: CCRIS mutagenicity, Ames/micronucleus/aberration tests
Assay: CCRIS mutagenicity studies
[1] = Test System: AMES SALMONELLA TYPHIMURIUM, Strain/Indicator: TA97, Metabolic Activation: NONE, Method: PREINCUBATION
[2] = Test System: AMES SALMONELLA TYPHIMURIUM, Strain/Indicator: TA97, Metabolic Activation: RAT, LIVER, S-9, AROCLOR 1254, Method: PREINCUBATION
[3] = Test System: AMES SALMONELLA TYPHIMURIUM, Strain/Indicator: TA98, Metabolic Activation: NONE, Method: PREINCUBATION
[4] = Test System: AMES SALMONELLA TYPHIMURIUM, Strain/Indicator: TA100, Metabolic Activation: NONE, Method: PREINCUBATION
[5] = Test System: AMES SALMONELLA TYPHIMURIUM, Strain/Indicator: TA102, Metabolic Activation: NONE, Method: PREINCUBATION
[6] = Test System: AMES SALMONELLA TYPHIMURIUM, Strain/Indicator: TA102, Metabolic Activation: RAT, LIVER, S-9, AROCLOR 1254, Method: PREINCUBATION
[7] = Test System: AMES SALMONELLA TYPHIMURIUM, Strain/Indicator: TA98, Metabolic Activation: NONE, Method: STANDARD PLATE
[8] = Test System: AMES SALMONELLA TYPHIMURIUM, Strain/Indicator: TA100, Metabolic Activation: NONE, Method: STANDARD PLATE
[9] = Test System: AMES SALMONELLA TYPHIMURIUM, Strain/Indicator: TA1535, Metabolic Activation: NONE, Method: STANDARD PLATE
[10] = Test System: AMES SALMONELLA TYPHIMURIUM, Strain/Indicator: TA1537, Metabolic Activation: NONE, Method: STANDARD PLATE

In the case of `O=C(O)/C=C/C(=O)O`, the mutagenic call (Test System: AMES SALMONELLA TYPHIMURIUM, Strain/Indicator: TA97, Metabolic Activation: HAMSTER, LIVER, S-9, AROCLOR 1254 (10 OR 30%), Method: PREINCUBATION) is reported as “inactive; negative”, the mutagenic call [1] is reported as “inactive; negative” and the mutagenic call (Test System: AMES SALMONELLA TYPHIMURIUM, Strain/Indicator: TA97, Metabolic Activation: RAT, LIVER, S-9, AROCLOR 1254 (10 OR 30%), Method: PREINCUBATION) is reported as “inactive; negative”. For the same compound, the mutagenic call [2] was “inactive; negative”, the mutagenic call (Test System: AMES SALMONELLA TYPHIMURIUM, Strain/Indicator: TA98, Metabolic Activation: HAMSTER, LIVER, S-9, AROCLOR 1254 (10 OR 30%), Method: PREINCUBATION) was “inactive; negative” and the mutagenic call [3] was “inactive; negative”. The mutagenic call (Test System: AMES SALMONELLA TYPHIMURIUM, Strain/Indicator: TA98, Metabolic Activation: RAT, LIVER, S-9, AROCLOR 1254 (10 OR 30%), Method: PREINCUBATION) was “inactive; negative”, the mutagenic call (Test System: AMES SALMONELLA TYPHIMURIUM, Strain/Indicator: TA100, Metabolic Activation: HAMSTER, LIVER, S-9, AROCLOR 1254 (10 OR 30%), Method: PREINCUBATION) was “inactive; negative” and the mutagenic call [4] was “inactive; negative”. The mutagenic call (Test System: AMES SALMONELLA TYPHIMURIUM, Strain/Indicator: TA100, Metabolic Activation: RAT, LIVER, S-9, AROCLOR 1254 (10 OR 30%), Method: PREINCUBATION) was “inactive; negative”, the mutagenic call [5] was “inactive; negative” and the mutagenic call [6] was “inactive; negative”. For the same compound, the mutagenic call (Test System: AMES SALMONELLA TYPHIMURIUM, Strain/Indicator: TA1535, Metabolic Activation: HAMSTER, LIVER, S-9, AROCLOR 1254 (10 OR 30%), Method: PREINCUBATION) was “inactive; negative”, the mutagenic call (Test System: AMES SALMONELLA TYPHIMURIUM, Strain/Indicator: TA1535, Metabolic Activation: NONE, Method: PREINCUBATION) was “inactive; negative” and the mutagenic call (Test System: AMES SALMONELLA TYPHIMURIUM, Strain/Indicator: TA1535, Metabolic Activation: RAT, LIVER, S-9, AROCLOR 1254 (10 OR 30%), Method: PREINCUBATION) was “inactive; negative”. For the same compound, the mutagenic call (Test System: MOUSE LYMPHOMA, Strain/Indicator: L5178Y (TK+/TK-), Metabolic Activation: NONE, Method: SUSPENSION/PLATE) was “active; positive. reevaluation of results: positive” and the mutagenic call (Test System: MOUSE LYMPHOMA, Strain/Indicator: L5178Y (TK+/TK-), Metabolic Activation: RAT, LIVER, S-9, AROCLOR 1254, Method: SUSPENSION/PLATE) was “active; positive. reevaluation of results: positive”.
For `CC(=O)NC[C@@H](O)COc1cccc2ccccc12`, the mutagenic call (Test System: AMES SALMONELLA TYPHIMURIUM, Strain/Indicator: TA98, Metabolic Activation: RAT, LIVER, S-9, AROCLOR 1254, Method: PREINCUBATION) was “inactive; negative”, the mutagenic call (Test System: AMES SALMONELLA TYPHIMURIUM, Strain/Indicator: TA100, Metabolic Activation: RAT, LIVER, S-9, AROCLOR 1254, Method: PREINCUBATION) was “inactive; negative” and the mutagenic call [6] was “inactive; negative”. The mutagenic call (Test System: AMES SALMONELLA TYPHIMURIUM, Strain/Indicator: TA104, Metabolic Activation: RAT, LIVER, S-9, AROCLOR 1254, Method: PREINCUBATION) was “inactive; negative”, the mutagenic call (Test System: AMES SALMONELLA TYPHIMURIUM, Strain/Indicator: TA1535, Metabolic Activation: RAT, LIVER, S-9, AROCLOR 1254, Method: PREINCUBATION) was “inactive; negative” and the mutagenic call (Test System: AMES SALMONELLA TYPHIMURIUM, Strain/Indicator: TA1538, Metabolic Activation: RAT, LIVER, S-9, AROCLOR 1254, Method: PREINCUBATION) was “inactive; negative”. For the same compound, the mutagenic call (Test System: AMES SALMONELLA TYPHIMURIUM, Strain/Indicator: YG1021, Metabolic Activation: RAT, LIVER, S-9, AROCLOR 1254, Method: PREINCUBATION) was “inactive; negative”, the mutagenic call (Test System: AMES SALMONELLA TYPHIMURIUM, Strain/Indicator: YG1024, Metabolic Activation: RAT, LIVER, S-9, AROCLOR 1254, Method: PREINCUBATION) was “inactive; negative” and the mutagenic call (Test System: AMES SALMONELLA TYPHIMURIUM, Strain/Indicator: YG1026, Metabolic Activation: RAT, LIVER, S-9, AROCLOR 1254, Method: PREINCUBATION) was “inactive; negative”. For the same compound, the mutagenic call (Test System: AMES SALMONELLA TYPHIMURIUM, Strain/Indicator: YG1029, Metabolic Activation: RAT, LIVER, S-9, AROCLOR 1254, Method: PREINCUBATION) was “inactive; negative”, the mutagenic call (Test System: AMES SALMONELLA TYPHIMURIUM, Strain/Indicator: YG1041, Metabolic Activation: RAT, LIVER, S-9, AROCLOR 1254, Method: PREINCUBATION) was “inactive; negative” and the mutagenic call (Test System: AMES SALMONELLA TYPHIMURIUM, Strain/Indicator: YG1042, Metabolic Activation: RAT, LIVER, S-9, AROCLOR 1254, Method: PREINCUBATION) was “inactive; negative”. For the same compound, the mutagenic call (Test System: AMES SALMONELLA TYPHIMURIUM, Strain/Indicator: YG3003, Metabolic Activation: RAT, LIVER, S-9, AROCLOR 1254, Method: PREINCUBATION) was “inactive; negative”.
In the case of `CCCC(=O)OCCC(C)C`, the mutagenic call [1] is reported as “inactive; negative”, the mutagenic call [2] is reported as “inactive; negative” and the mutagenic call [5] is reported as “inactive; negative”. The mutagenic call [6] was “inactive; negative”.
`O=S(=O)(Nc1ccc(Cl)cc1)c1cccc2cccnc12` was tested, and the mutagenic call [7] was “inactive; negative”, the mutagenic call (Test System: AMES SALMONELLA TYPHIMURIUM, Strain/Indicator: TA98, Metabolic Activation: RAT, LIVER, S-9, AROCLOR 1254, Method: STANDARD PLATE) was “inactive; negative” and the mutagenic call [8] was “inactive; negative”. The mutagenic call (Test System: AMES SALMONELLA TYPHIMURIUM, Strain/Indicator: TA100, Metabolic Activation: RAT, LIVER, S-9, AROCLOR 1254, Method: STANDARD PLATE) was “inactive; negative”, the mutagenic call [9] was “inactive; negative” and the mutagenic call (Test System: AMES SALMONELLA TYPHIMURIUM, Strain/Indicator: TA1535, Metabolic Activation: RAT, LIVER, S-9, AROCLOR 1254, Method: STANDARD PLATE) was “inactive; negative”. For the same compound, the mutagenic call [10] was “inactive; negative” and the mutagenic call (Test System: AMES SALMONELLA TYPHIMURIUM, Strain/Indicator: TA1537, Metabolic Activation: RAT, LIVER, S-9, AROCLOR 1254, Method: STANDARD PLATE) was “inactive; negative”.
In the case of `C[C@H]1CCC[C@H](O)CCCCCc2cc(O)cc(O)c2C(=O)O1`, the mutagenic call [7] is reported as “inactive; negative”, the mutagenic call (Test System: AMES SALMONELLA TYPHIMURIUM, Strain/Indicator: TA98, Metabolic Activation: RAT, LIVER, S-9, Method: STANDARD PLATE) is reported as “inactive; negative” and the mutagenic call [8] is reported as “inactive; negative; toxicity at 1000 ug/plate”. For the same compound, the mutagenic call (Test System: AMES SALMONELLA TYPHIMURIUM, Strain/Indicator: TA100, Metabolic Activation: RAT, LIVER, S-9, Method: STANDARD PLATE) was “inactive; negative”, the mutagenic call [9] was “inactive; negative” and the mutagenic call (Test System: AMES SALMONELLA TYPHIMURIUM, Strain/Indicator: TA1535, Metabolic Activation: RAT, LIVER, S-9, Method: STANDARD PLATE) was “inactive; negative”. The mutagenic call [10] was “inactive; negative; toxicity at 1000 ug/plate”, the mutagenic call (Test System: AMES SALMONELLA TYPHIMURIUM, Strain/Indicator: TA1537, Metabolic Activation: RAT, LIVER, S-9, Method: STANDARD PLATE) was “inactive; negative; toxicity at 1000 ug/plate” and the mutagenic call (Test System: AMES SALMONELLA TYPHIMURIUM, Strain/Indicator: TA1538, Metabolic Activation: NONE, Method: STANDARD PLATE) was “inactive; negative”. The mutagenic call (Test System: AMES SALMONELLA TYPHIMURIUM, Strain/Indicator: TA1538, Metabolic Activation: RAT, LIVER, S-9, Method: STANDARD PLATE) was “inactive; negative; toxicity at 1000 ug/plate”.
With `O[C@@H]1[C@@H]2O[C@@H]2c2c(ccc3cc4c(ccc5ccccc54)nc23)[C@H]1O` the mutagenic call [3] was “active; positive”, the mutagenic call [4] was “active; positive” and the mutagenic call (Test System: CHINESE HAMSTER V-79, Strain/Indicator: V-79/8-AZAGUANINE, Metabolic Activation: NONE) was “active; positive”.
With `Cc1cn(CC(O)CN=[N+]=[N-])c(=O)[nH]c1=O` (configuration not stated) the mutagenic call [8] was “active; positive”.
With `COc1cc2c(cc1O)CC[C@@H]1[C@@H]2CC[C@]2(C)[C@@H](O)CC[C@@H]12` the mutagenic call (Test System: Mouse lymphoma, Strain/Indicator: L5178Y (tk+/tk-), Metabolic Activation: Rat, Liver, S-9, Aroclor 1254, Method: Suspension/plate) was “active; equivocal (previous evaluation positive)”.
